“And” between values parts separate entries of the source, which are not always exact repeats. Equal values may be shown once.

The experiment has as its target Replicase polyprotein 1ab (Severe acute respiratory syndrome coronavirus 2, UniProt P0DTD1). Briefly: Functional biochemical assay to identify treatments for viral infectious disease that targets SARS-COV-2 nsp3 macrodomain, whereby the mechanism of action displaces an ADP-Ribose modified peptide from the binding site. Utilizing a time-resolved fluorescence method to measure binding by reading the emitted fluorescence intensity in two wavelengths.
On to `O=C(O)C[C@@H](NC(=O)c1ccnc2ncccc12)c1ccc(Br)cc1`, for which the IC50 was 87.9 µM and 92.8 µM.

For the compound `O=C(Nc1cccc2c(C(=O)N[C@@H](C(=O)O)c3ccc4c(c3)OCCO4)c[nH]c12)NC1CC1`, the IC50 is greater than 99.5 µM.

With `Cc1ccc(C(=O)Nc2ncnc3[nH]c(C)c(C)c23)cn1`, the 50% inhibitory concentration (IC50) is greater than 99.5 µM.

Regarding `O=C(Nc1ncnc2c(C(=O)NC3(c4ccccc4F)CCCCC3)csc12)NC1CC1`, the IC50 is greater than 99.5 µM.

`CC(=O)c1ccc(S(=O)(=O)Nc2cnc3[nH]ccc3c2)cc1` gave an IC50 greater than 99.5 µM.

Compound `Cn1cc([C@@H](NC(=O)c2c[nH]c3c(NC(=O)NC4CC4)cccc23)C2CCC2)cn1` gave an IC50 greater than 99.5 µM.

In turn, `NS(=O)(=O)C[C@@H](NC(=O)c1ncnc2[nH]ccc12)c1ccc(Br)cc1` gave an IC50 greater than 99.5 µM.

As for `CS(=O)(=O)NC1CCC(Nc2ccc([C@@H](CC(=O)O)NC(=O)c3ncnc4[nH]ccc34)cc2)CC1` (stereo partly specified), the IC50 is 73.7 µM and 86 µM.

Compound `O=C(O)C[C@@H](NC(=O)c1cccc2cc[nH]c12)c1ccc(Br)cc1` showed an IC50 greater than 99.5 µM.

Take `O=C(NCc1nc(-c2cc3c(N4CCCC5(CC5)C4)ncnc3[nH]2)c[nH]1)c1ccc(F)nc1`: the IC50 was 24.8 µM and 20.8 µM.

Consider `COCc1cc(CNc2ccc([C@@H](CC(=O)O)NC(=O)c3ncnc4[nH]ccc34)cc2)on1`, for which the half-maximal inhibitory concentration (IC50) is 10.6 µM and 12.4 µM.

In turn, `Cc1[nH]c2ncnc(NC(=O)c3ccc(Cl)nn3)c2c1C` had an IC50 greater than 99.5 µM.

In the case of `CC(C)n1nccc1S(=O)(=O)Nc1cnc2[nH]ccc2c1`, the concentration for half-maximal inhibition (IC50) is greater than 99.5 µM.

Regarding `Cc1[nH]c2ncnc(NC(=O)c3ccnnc3)c2c1C`, the IC50 was greater than 99.5 µM.

In turn, `Cc1[nH]c2ncnc(NC(=O)c3cccc(Cl)n3)c2c1C` had a concentration for half-maximal inhibition (IC50) greater than 99.5 µM.

As for `Cc1[nH]c2ncnc(NC(=O)c3cccnn3)c2c1C`, the IC50 was greater than 99.5 µM.

Regarding `Cc1[nH]c2ncnc(NC(=O)c3ccc(-n4cccn4)nc3)c2c1C`, the IC50 was greater than 99.5 µM.

The compound `COc1ccc2c(NC(=O)c3ccc(NC(=O)NC4CC4)cc3)c(C(=O)O)sc2c1` showed an IC50 greater than 99.5 µM.

As to `Cc1[nH]c2ncnc(NC(=O)Cc3ccc(Cl)nc3)c2c1C`, the half-inhibitory concentration (IC50) is greater than 99.5 µM.

For `O=C(O)C[C@@H](CNC(=O)c1ncnc2[nH]ccc12)c1ccc(Cl)cc1`, the half-inhibitory concentration (IC50) is 65.3 µM and 71.3 µM.

Regarding `COCc1cc(CNc2ccc([C@@H](CC(=O)O)NC(=O)c3c[nH]c4ncncc34)cc2)on1`, the IC50 was greater than 99.5 µM.

Turning to `Cc1[nH]c2ncnc(NC(=O)c3ccc(N(C)C)nc3)c2c1C`, the half-inhibitory concentration (IC50) was greater than 99.5 µM.

Compound `Cc1cc2c(C(=O)N[C@@H](CC(=O)O)c3ccc(Br)cc3)cccc2[nH]1` gave a half-inhibitory concentration (IC50) greater than 99.5 µM.

`O=S(=O)(Cc1ccc(F)cc1)Nc1cnc2[nH]ccc2c1`: the IC50 was greater than 99.5 µM.

Compound `O=C(N[C@@H](CCO)c1ccccc1F)c1ncnc2[nH]ccc12` displayed an IC50 greater than 99.5 µM.

On to `COc1ccc(S(=O)(=O)Nc2cnc3[nH]ccc3c2)cc1C(N)=O`, for which the half-inhibitory concentration (IC50) is greater than 99.5 µM.

For the compound `O=C(O)C[C@@H](NC(=O)c1ccnc2cn[nH]c12)c1ccc(Br)cc1`, the concentration for half-maximal inhibition (IC50) was 10.3 µM and 9.53 µM.

`O=C(O)C[C@@H](NC(=O)c1cccc2[nH]cnc12)c1ccc(Br)cc1`: the IC50 was 39.2 µM and 40.3 µM.

`CC(C)[C@@H](NC(=O)c1c[nH]c2c(NC(=O)NC3CC3)cccc12)C(F)F`: the IC50 is greater than 99.5 µM.

`CN(C)c1ccc(C(=O)N[C@@H](CC(=O)O)c2ccc(Br)cc2)nc1` yielded a concentration for half-maximal inhibition (IC50) greater than 99.5 µM.

`CC(C)[C@@H](Cc1ccc(F)cc1)NC(=O)c1ncnc2[nH]ccc12` registered an IC50 greater than 99.5 µM.

Consider `O=C(O)C[C@@H](NC(=O)Cc1c[nH]c2ncccc12)c1ccc(Br)cc1`, for which the IC50 was greater than 99.5 µM.

`O=C(NCSC[C@@H](NC(=O)c1ncnc2[nH]ccc12)C(=O)O)c1ccccc1` returned a 50% inhibitory concentration (IC50) greater than 99.5 µM.

For the compound `N#CCc1cccc(S(=O)(=O)Nc2cnc3[nH]ccc3c2)c1`, the IC50 is greater than 99.5 µM.

`O=S(=O)(Cc1ccccc1F)Nc1cnc2[nH]ccc2c1` had an IC50 greater than 99.5 µM.

Compound `O=C(NCc1ccccc1F)c1ncnc2[nH]ccc12` had an IC50 greater than 99.5 µM.

With `NC(=O)C[C@@H](NC(=O)c1ncnc2[nH]ccc12)C1CCCCC1`, the IC50 is greater than 99.5 µM.

As for `COc1ccc(C(=O)N2CCC(c3ccn4ncc(C(=O)N[C@@H]5CCC[C@@H]5C(=O)O)c4c3)CC2)cc1`, the IC50 was 20.2 µM and 24.6 µM.

`CCc1cnn(C)c1NC(=O)c1ncnc2[nH]ccc12`: the IC50 was greater than 99.5 µM.

`O=C(O)C[C@@H](NC(=O)c1ccnc(-n2cccc2)c1)c1ccc(Br)cc1` came in with an IC50 greater than 99.5 µM.

As to `COc1cc(Nc2ccc([C@@H](CC(=O)O)NC(=O)c3ncnc4[nH]ccc34)cc2)n[nH]1`, the IC50 is 7.57 µM and 7.27 µM.

`Cc1[nH]c2ncnc(NC(=O)c3cccnc3)c2c1C` gave a concentration for half-maximal inhibition (IC50) greater than 99.5 µM.

In the case of `O=C(O)C[C@@H](NC(=O)c1nccc2[nH]ncc12)c1ccc(Br)cc1`, the IC50 is 24.7 µM and 24.2 µM.

`COc1ccc(C(=O)Nc2ncnc3[nH]c(C)c(C)c23)cn1` gave an IC50 greater than 99.5 µM.

Regarding `CC(C)[C@@H](CO)NC(=O)c1c[nH]c2c(NC(=O)NC3CC3)cccc12`, the IC50 was greater than 99.5 µM.

As to `Cc1[nH]c2ncnc(NC(=O)c3ccc(C#N)nc3)c2c1C`, the IC50 is greater than 99.5 µM.

As for `Cc1[nH]c2ncnc(NC(=O)c3cnc(Cl)cn3)c2c1C`, the IC50 was greater than 99.5 µM.

`Cc1cc(C)cc(CS(=O)(=O)Nc2cnc3[nH]ccc3c2)c1` returned a half-inhibitory concentration (IC50) greater than 99.5 µM.

`Cc1[nH]c2ncnc(NC(=O)c3ccc(-n4cnnc4)cc3)c2c1C` came in with an IC50 greater than 99.5 µM.

`O=C(O)C[C@@H](NC(=O)c1cccc2[nH]ncc12)c1ccc(Br)cc1` showed an IC50 greater than 99.5 µM.

Consider `Cc1[nH]c2ncnc(NC(=O)c3ncccc3Cl)c2c1C`, for which the 50% inhibitory concentration (IC50) is 49.3 µM and 60.3 µM.

For the compound `O=C(Nc1cccc2c(C(=O)N[C@@H](c3ccccc3)C(F)F)c[nH]c12)NC1CC1`, the IC50 is greater than 99.5 µM.

Turning to `O=C(O)C[C@@H](NC(=O)c1c[nH]c2ncccc12)c1ccc(Br)cc1`, the IC50 is 27.4 µM and 29 µM.

Regarding `Cc1ccc(C(=O)N2CCC(c3ccn4ncc(C(=O)N[C@@H]5CCC[C@@H]5C(=O)O)c4c3)CC2)cc1`, the IC50 was 20.7 µM and 21.8 µM.

In turn, `O=C(Nc1ccc(C(=O)Nc2c(C(=O)O)sc3cnccc23)cc1)NC1CC1` returned an IC50 greater than 99.5 µM.

`NC(=O)[C@@H](NC(=O)c1ncnc2[nH]ccc12)c1ccc(F)cc1` yielded an IC50 greater than 99.5 µM.

For the compound `O=C(N[C@@H]1CCC[C@@H]1C(=O)O)c1cnn2ccc(C3CCN(C(=O)c4ccc(Cl)cc4)CC3)cc12`, the 50% inhibitory concentration (IC50) was 32.5 µM and 24.5 µM.

Consider `COc1ccc([C@@H](CC(=O)O)NC(=O)c2ncnc3[nH]ccc23)cc1`, for which the IC50 is 2.07 µM and 2.12 µM and 3.68 µM.

Regarding `NC(=O)c1ccc(S(=O)(=O)Nc2cnc3[nH]ccc3c2)cc1`, the IC50 is greater than 99.5 µM.

The compound `Cc1[nH]c2ncnc(NC(=O)[C@@H]3CCc4c(Cl)cccc43)c2c1C` had a half-maximal inhibitory concentration (IC50) greater than 99.5 µM.

The compound `O=C(N[C@@H](Cc1ccc(Br)cc1)C(=O)O)c1ncnc2[nH]ccc12` showed an IC50 greater than 99.5 µM.

As to `Cn1ncc2c(C(=O)N[C@@H](CC(=O)O)c3ccc(Br)cc3)ccnc21`, the IC50 was 70.2 µM and 81.7 µM.

In turn, `CC(=O)Nc1ccc(C(=O)Nc2ncnc3[nH]c(C)c(C)c23)cc1Cl` returned an IC50 greater than 99.5 µM.

With `Cc1nc2c(C(=O)N[C@@H](CC(=O)O)c3ccc(Br)cc3)ccnc2[nH]1`, the half-inhibitory concentration (IC50) is 20.6 µM and 20.2 µM.

In the case of `O=C(O)C[C@@H](NC(=O)c1cncc2[nH]ccc12)c1ccc(Br)cc1`, the 50% inhibitory concentration (IC50) was 35.8 µM and 41.3 µM.

`C[C@@H](O)[C@@H](NC(=O)c1csc2c(NC(=O)NC3CC3)ncnc12)c1ccccc1F` showed an IC50 greater than 99.5 µM.

`Cc1ncc(CCNC(=O)c2csc3c(NC(=O)NC4CC4)ncnc23)s1` showed an IC50 greater than 99.5 µM.

In turn, `COC[C@@H]1C[C@@H]1CNc1ccc([C@@H](CC(=O)O)NC(=O)c2c[nH]c3ncncc23)cc1` had an IC50 greater than 99.5 µM.

Turning to `Cc1[nH]c2ncnc(NC(=O)c3ccc(S(C)(=O)=O)nc3)c2c1C`, the IC50 was greater than 99.5 µM.

For the compound `O=C(Nc1ncnc2c(C(=O)N[C@@H](c3cccs3)C3CCCC3)csc12)NC1CC1`, the IC50 was greater than 99.5 µM.

Regarding `Cc1[nH]c2ncnc(NC(=O)Cc3cn[nH]c3)c2c1C`, the IC50 is 75.2 µM and 99 µM.

Take `NC(=O)C[C@H](NC(=O)c1ncnc2[nH]ccc12)c1ccc(Cl)cc1`: the 50% inhibitory concentration (IC50) was greater than 99.5 µM.

Compound `Cc1[nH]c2ncnc(NC(=O)c3ccc(Cl)cn3)c2c1C` registered a half-maximal inhibitory concentration (IC50) greater than 99.5 µM.

`O=C(NCc1ccc(F)cn1)c1ncnc2[nH]ccc12` registered an IC50 greater than 99.5 µM.

In turn, `CC(C)[C@@H](NCc1ccc(-n2ccnc2)cc1)c1ccc2c(c1)OCCO2` came in with an IC50 greater than 99.5 µM.

`O=C(N[C@@H](CO)Cc1ccncc1)c1ncnc2[nH]ccc12` showed an IC50 greater than 99.5 µM.

With `O=C(O)C[C@@H](NC(=O)c1cc2[nH]ccc2cn1)c1ccc(Br)cc1`, the IC50 was 6.82 µM and 7.54 µM.

For `O=C(Nc1cccc2c(C(=O)N[C@@H]3c4ccccc4C[C@@H]3C(=O)O)c[nH]c12)NC1CC1`, the IC50 was 3.47 µM and 3.78 µM and 2.28 µM and 1.85 µM.

Regarding `CC(C)[C@@H](NC(=O)c1ccnc2ccccc12)c1ccc2c(c1)OCCO2`, the IC50 was greater than 99.5 µM.

Consider `O=C(O)C[C@@H](NC(=O)c1ccc2[nH]ccc2n1)c1ccc(Br)cc1`, for which the IC50 was 41.2 µM and 38.3 µM.

On to `CCc1coc(Nc2ccc([C@@H](CC(=O)O)NC(=O)c3c[nH]c4ncncc34)cc2)n1`, for which the IC50 was 70.9 µM and 76.1 µM.

Consider `Cc1[nH]c2ncnc(NC(=O)[C@@H]3CCCc4ncccc43)c2c1C`, for which the IC50 is greater than 99.5 µM.

For the compound `O=C(N[C@@H](C(=O)O)c1ccc(Br)cc1)c1ncnc2[nH]ccc12`, the IC50 is 52.1 µM and 62.9 µM.

As for `O=C(O)C[C@@H](NC(=O)c1nccc2cc[nH]c12)c1ccc(Br)cc1`, the half-maximal inhibitory concentration (IC50) is 29.6 µM and 31.2 µM.

As for `Cn1ccc2c(C(=O)N[C@@H](CC(=O)O)c3ccc(Br)cc3)ccnc21`, the IC50 was 36.6 µM and 33.2 µM.

The compound `CN(C)C(=O)c1cccc(S(=O)(=O)Nc2cnc3[nH]ccc3c2)c1` had an IC50 greater than 99.5 µM.

In turn, `Cc1[nH]c2ncnc(NC(=O)c3cc(Cl)ccn3)c2c1C` displayed an IC50 greater than 99.5 µM.

The compound `C[C@@H](c1ccc(F)c(F)c1)N(C)C(=O)c1ncnc2[nH]ccc12` showed an IC50 greater than 99.5 µM.

With `O=C(N[C@@H]1CCC[C@@H]1C(=O)O)c1cnn2ccc(C3CCN(C(=O)c4ccc(Cl)c(Cl)c4)CC3)cc12`, the IC50 is 38 µM and 40.8 µM.

Regarding `Cc1[nH]c2ncnc(NC(=O)C3(c4ccc(F)cc4)CCC3)c2c1C`, the IC50 was 19.5 µM and 21.8 µM.

The compound `O=C(O)C[C@@H](NC(=O)c1cnc2[nH]ccc2c1)c1ccc(Br)cc1` displayed an IC50 greater than 99.5 µM.

These data come from ChEMBL document CHEMBL5441456, “ASAP - SARS-CoV-2 nsp3 macrodomain dose response” (2024).
